According to US3989845A, “Anesthetic chlorocyclopropanes” (priority 1974, dated 1976):

System: Mice
Assay: Inhalation anesthesia test in mice, 10 minutes in a rotating drum (pinch, corneal and righting reflex): AC50, LC50 and anesthetic index
Format: in vivo
Details: for AI (anesthetic index, LC50/AC50): calculated from LC50 and AC50, 10 min; for AC50 (minimum concentration required to anesthetize 50% of the mice) / LC50 (minimum concentration required to kill 50% of the mice): inhalation, 10 minutes in rotating drum, at least four graded doses, where two figures are given, the actual value lies between them
Method: Mice were exposed to the anesthetic for a period of 10 minutes in a rotating drum. Observations were then made of the pinch reflex, the corneal reflex and the return of the righting reflex. At least four graded doses were employed to determine the minimum concentration required to anesthetize 50% of the mice used (AC50) and the minimum concentration required to kill 50% of the mice (LC50). The anesthetic index (AI) was then calculated from these minimum concentrations.

SMILES | AI (anesthetic index, LC50/AC50) | AC50 (minimum concentration required to anesthetize 50% of the mice) | LC50 (minimum concentration required to kill 50% of the mice)
CC1(F)C(F)(F)C1(Cl)Cl (stereo not drawn) [Example 8, 1,1-diCl-2-CH3-triF-] | 4-6 | < 1 % volume | 4-6 % volume
CC1(Cl)CC1(F)Cl (stereo not drawn) [Example 9, 1,2-Dichloro-1-fluoro-2-methylcyclopropane] | > 2 | < 1 % volume | 2-4 % volume
FC1(F)C(F)(Cl)C1(Cl)Cl (stereo not drawn) [Example 10, 1,1,2-triCl-triF-] | > 3 | 1.5 % volume | 2-10 % volume
FC(F)(F)C1(F)C(F)(F)C1(Cl)Cl (stereo not drawn) [Example 11, 1,1-diCl-2-CF3-triF-] | ~ 2 | 4 % volume | > 10 % volume
FC1(F)C(F)(Cl)C1(F)Cl (stereo not drawn) [Example 12, 1,2-Dichlorotetrafluorocyclopropane] | ~ 2 | 6-10 % volume | < 20 % volume
FC1(F)C(Cl)(Cl)C1(Cl)Cl [Example 13, 1,1,2,2-tetraCl-diF-] | ~ 4 | 0.25 % volume | 1 % volume
FC1C(F)(F)C1(Cl)Cl (stereo not drawn) [Example 14, 1,1-diCl-2,3,3-triF-] | 2-3 | < 2 % volume | 4-6 % volume
